Columns and labels:
[1] = system: anesthetized male CD rats; assay: Rat Cardiovascular/Respiratory (CV/R) assay; assay type: in vivo; design: ∆ QRS Interval: unit not given here
Protocol: Male CD Rats were anesthetized with ketamine:xylazine (85 mg/kg:5 mg/kg, im, to effect). The left femoral artery and vein were cannulated for the measurement of blood pressure and the administration of test agent, respectively. The right femoral vein was cannulated for maintenance anesthetic infusion (ketamine:xylazine ~35 mg/kg/hr:1.5 mg/kg/hr, iv, to effect). Needle electrodes were placed subcutaneously at the right axillary and left inguinal areas to record lead II ECGs. When ECG intervals were required to determine effect on cardiac conduction a pacing/recording electrode catheter was advanced through the right jugular vein to pace the heart. ECG intervals were then measured at a fixed cardiac rate of 400 beats/minute to remove any variability of intrinsic heart rate on these parameters.
To determine the test agent-dependent effect on respiratory rate, a tracheotomy was also performed using a short length of polyethylene tubing containing a thermistor (AD Instruments). The change in temperature detected by the thermistor was used to calculate respiratory rate.
For in vivo CVR and phrenic nerve activity studies, all raw signals were amplified via general purposed biological amplifier (filter settings DC – 3-5 KhZ) then digitized, calibrated and collected at a minimum of 500 Hz (1000 Hz for ECG and 2000 Hz for cardiac electrograms, and 10 KHz for phrenic nerve activity) using Notocord-HEM data acquisition and analysis software. The raw signal was filtered following acquisition with a bandpass filter set to 200–800 Hz). Vehicle (100% dimethylformamdide, DMF) or compound formulated in the vehicle was administered as a 30-minute IV infusion at 0.0167 μL/g body weight/min. Doses were selected to achieve unbound plasma concentrations in range of measured Nav1.6 IC50 values when infused at 0.0167uL/g body weight/min based on measured rat clearance, plasma protein binding and Nav1.6 IC50. Exposure in rats was determined in separate pharmacokinetics experiments where compounds were administered via IV dosing.

Human NaV1.5 = molecular target: T1, Human NaV1.5 (Homo sapiens, UniProt Q14524); assay: PatchXpress automated patch clamp, depolarized-state protocol; assay type: cell-based; conditions: HEK 293 cells
T1 construct: expressed in transfected cells
T1 sequence (Q14524 whole entry): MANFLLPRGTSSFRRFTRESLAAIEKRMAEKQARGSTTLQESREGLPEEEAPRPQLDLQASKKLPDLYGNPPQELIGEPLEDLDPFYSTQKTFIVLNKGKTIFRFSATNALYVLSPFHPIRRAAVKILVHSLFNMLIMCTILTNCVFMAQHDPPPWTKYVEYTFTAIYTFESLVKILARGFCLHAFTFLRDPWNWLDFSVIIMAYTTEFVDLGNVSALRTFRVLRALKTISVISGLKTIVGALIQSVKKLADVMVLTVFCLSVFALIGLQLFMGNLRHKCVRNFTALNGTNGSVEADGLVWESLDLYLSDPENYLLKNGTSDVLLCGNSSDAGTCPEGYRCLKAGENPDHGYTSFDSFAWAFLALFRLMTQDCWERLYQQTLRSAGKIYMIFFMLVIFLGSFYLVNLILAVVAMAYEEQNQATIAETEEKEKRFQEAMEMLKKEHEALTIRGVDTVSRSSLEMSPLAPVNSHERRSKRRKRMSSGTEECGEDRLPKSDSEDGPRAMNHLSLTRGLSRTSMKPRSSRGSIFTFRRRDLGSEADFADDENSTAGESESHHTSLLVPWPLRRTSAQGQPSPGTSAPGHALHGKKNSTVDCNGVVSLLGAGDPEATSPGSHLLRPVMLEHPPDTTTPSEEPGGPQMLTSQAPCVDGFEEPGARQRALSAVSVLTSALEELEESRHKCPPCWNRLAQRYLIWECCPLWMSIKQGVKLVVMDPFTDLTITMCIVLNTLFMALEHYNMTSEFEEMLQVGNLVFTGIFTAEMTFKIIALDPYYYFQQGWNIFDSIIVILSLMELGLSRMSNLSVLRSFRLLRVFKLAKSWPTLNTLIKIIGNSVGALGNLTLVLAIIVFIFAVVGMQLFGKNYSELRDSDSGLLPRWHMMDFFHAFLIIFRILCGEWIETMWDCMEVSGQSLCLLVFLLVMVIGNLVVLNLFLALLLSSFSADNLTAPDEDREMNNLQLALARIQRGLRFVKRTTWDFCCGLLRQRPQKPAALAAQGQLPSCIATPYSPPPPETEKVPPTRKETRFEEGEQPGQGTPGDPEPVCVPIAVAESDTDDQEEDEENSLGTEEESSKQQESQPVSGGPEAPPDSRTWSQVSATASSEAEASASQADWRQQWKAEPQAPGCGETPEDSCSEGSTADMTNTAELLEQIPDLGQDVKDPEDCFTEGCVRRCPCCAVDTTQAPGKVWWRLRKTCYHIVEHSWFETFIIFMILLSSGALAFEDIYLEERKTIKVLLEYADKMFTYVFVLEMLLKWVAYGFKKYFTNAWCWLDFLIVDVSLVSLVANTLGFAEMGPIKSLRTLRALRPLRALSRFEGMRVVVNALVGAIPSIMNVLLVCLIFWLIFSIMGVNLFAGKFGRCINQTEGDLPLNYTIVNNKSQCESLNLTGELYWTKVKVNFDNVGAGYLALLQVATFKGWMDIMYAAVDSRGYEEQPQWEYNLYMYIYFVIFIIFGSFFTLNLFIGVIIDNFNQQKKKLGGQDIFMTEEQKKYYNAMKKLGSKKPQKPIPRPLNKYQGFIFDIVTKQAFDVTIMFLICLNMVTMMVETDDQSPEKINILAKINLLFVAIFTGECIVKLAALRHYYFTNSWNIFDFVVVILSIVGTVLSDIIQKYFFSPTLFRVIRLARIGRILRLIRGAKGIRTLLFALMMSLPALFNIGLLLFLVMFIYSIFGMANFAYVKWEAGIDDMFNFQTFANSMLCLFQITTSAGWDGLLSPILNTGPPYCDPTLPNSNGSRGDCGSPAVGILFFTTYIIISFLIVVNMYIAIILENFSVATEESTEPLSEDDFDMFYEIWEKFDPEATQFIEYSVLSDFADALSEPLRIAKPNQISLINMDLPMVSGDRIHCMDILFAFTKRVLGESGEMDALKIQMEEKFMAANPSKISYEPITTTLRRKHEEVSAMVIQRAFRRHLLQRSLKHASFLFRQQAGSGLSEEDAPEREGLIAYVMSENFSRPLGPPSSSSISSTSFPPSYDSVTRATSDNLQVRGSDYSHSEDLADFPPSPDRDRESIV
Protocol: Sodium currents were recorded from recombinant Human Embryonic Kidney 293 cell lines stably overexpressing the respective sodium channel type (NaV1.2, 1.5, 1.4, 1.6, 1.7). Recording solutions were comprised of the following (in mM): Internal solution: 30 CsCl, 5 HEPES, 10 EGTA, 120 CsF, 5 NaF, 2 MgCl2, pH = 7.3 with CsOH; External solution 1: 40 NaCl, 120 NMDG, 1 KCl, 0.5 MgCl2, 5 HEPES, 2.7 CaCl2, pH to 7.3 with NaOH, used for NaV1.5 recordings; External solution 2: 150 NaCl, 5 KCl, 2 CaCl2, 1 MgCl2, 10 HEPES, 12 Dextrose, pH 7.3 with NaOH, used for NaV1.7, 1.6, 1.4, and 1.2 recordings.
Whole-cell currents were recorded from cells stably expressing NaV channels using the PatchXpress 7000A automated patch clamp platform (Molecular Devices, LLC; Sunnyvale, CA). A portable air-conditioning unit was installed on the PatchXpress instruments to maintain the temperature of the headstage at 21°C. Cells were voltage clamped at −60 mV for cell detection and sealing. At the start of each recording, a voltage curve and an inactivation curve was run for each cell to determine the voltage at which 50% of the channels reside in the inactivated state (V0.5 inact). The voltage curve was used to determine if the cell was adequately clamped; cells with currents larger than 10nA or with space clamp issues were not used further.
NaV1.5: Compound potency was measured in a depolarized-state protocol where the holding potential for each cell was set to V0.5inact – 20 mV. The pulse protocol consisted of an 8 sec prepulse to V0.5inact + 7 mV, followed by a 2 ms hyperpolarization to −120 mV and a 10 ms test pulse to −10 mV. First, vehicle (0.3% DMSO) was added to establish a baseline measurement. Once baseline was established, a test compound was added. Cells were exposed to compound for 5 minutes at V0.5inact – 20 mV. Compound washout was performed to measure the recovery of the sodium currents from inhibition.
Recordings were included for analysis when current amplitude reached steady-state in vehicle, compound inhibition was concentration-dependent and currents recovered during wash-out periods. Raw data from PatchXpress experiments were retrieved from the database and analyzed using the DataXpress 2 software (Molecular Devices).
At least 3 concentrations (3–9 replicates per concentration) were tested and at least one concentration had to cause 20–80% current inhibition.

[2] = Permeability (Papp, passive diffusion); assay type: in vitro ADME
[3] = system: rat diaphragm with the phrenic nerve attached; assay: Rat hemisected diaphragm (HMD) assay, ex vivo; conditions: for IC50: relative to 3 μM d-Tubocurarine relaxation = 100%; for inhibition in rat HMD assay: at both 10 and 30 μM
From the text: Wistar derived male or female rats weighing 450 ± 50 g were euthanized by CO2 overexposure. The diaphragm with the phrenic nerve attached was removed and placed into a tissue recording chamber containing Krebs solution pH 7.4; (composition in g/L: NaCl 6.89, KCl 0.35, CaCl2 0.277, KH2PO4 0.163, MgSO4 · 7H2O 0.296, NaHCO3 2.1 and glucose 1.8). A piece of cotton was attached to the top of the phrenic nerve over the jaw electrodes. A second piece of cotton was attached to the tip of the tendinous tissue at the apex of the diaphragm preparation for attachment to an isometric transducer under 1 g tension. The rib of the diaphragm preparation was secured to the bottom of the jaw electrodes. […] The recording chamber was placed into a water bath kept at a temperature of 32°C by means of a suitable thermoregulator consisting of a thermostat and heating elements in addition to a water circulator.
The isometric transducer was connected to an amplifier and the tissue response was recorded on a two-pen recorder set at 1 volt. Field stimulation [S48 Stimulator (GRASS) set at 0.2 Hz (12 pulses per minute), 0.5 ms pulse duration at 70% of maximum voltage (about 3 to 5 volts)] delivered to two circle platinum electrodes (0.2 cm in diameter) was applied for transmural tissue stimulation. Each tissue preparation was washed three times in Krebs solution every 15 minutes for a 60 minute equilibration period and permitted to develop contractions. D-Tubocurarine (300 µM dissolved in 0.1 mL distilled water for a final 3 µM bath concentration) was added to establish an isometrically recorded control relaxation response ranging from one to two centimeters and corresponding to 60–70% of maximal relaxation. […] The tissue was then washed periodically until the contraction returns to the baseline value.
Sixty minutes later, the test compound was added (e.g. 30 mM in 0.01 mL vehicle of 100% DMSO, for final concentration of 30 µM test compound and 0.1% DMSO). A test compound recorded relaxation response of 50% or more (≥50%) within 5 minutes, relative to the 3 µM d-Tubocurarine control response, indicates neuromuscular blocking activity.

[4] = rat CV/R assay, IV infusion, doses tested
[5] = rat, IV infusion, 7 mg/kg, 15 min
[6] = rat, IV infusion, 7 mg/kg, 30 min
[7] = rat, IV infusion, 14 mg/kg, 15 min
[8] = rat, IV infusion, 14 mg/kg, 30 min
[9] = rat, IV infusion, 30 mg/kg, 15 min
[10] = rat, IV infusion, 30 mg/kg, 30 min
[11] = rat, IV infusion, 10 mg/kg, 15 min
[12] = rat, IV infusion, 10 mg/kg, 30 min
[13] = rat, IV infusion, 60 mg/kg, 15 min
[14] = rat, IV infusion, 1 mg/kg, 15 min
[15] = rat, IV infusion, 1 mg/kg, 30 min

Structure (SMILES): O=S(=O)(Nc1nccs1)c1cc(Cl)c(NCCCCNC[C@H]2CCCN2)cc1F [SSCI-1]
- mortality [1, 4]: No mortality
- effects on cardiovascular and respiratory parameters ([1]; rat CV/R assay, at unbound plasma exposure 16.9 μM): minimal effects
- ∆ Heart Rate [1, 5]: 0.5 ± 2.2 bpm
- ∆ Mean Arterial Pressure [1, 5]: 4.1 ± 0.3 mmHg
- ∆ QRS Interval [1, 5]: 1.4 ± 0.6
- ∆ respiratory rate [1, 5]: 0.8 ± 1.8%
- ∆ Heart Rate [1, 6]: −1.8 ± 3.7 bpm
- ∆ Mean Arterial Pressure [1, 6]: 2.7 ± 0.5 mmHg
- ∆ QRS Interval [1, 6]: 2.5 ± 1.1
- ∆ respiratory rate [1, 6]: 4.5 ± 1.7%
- ∆ Heart Rate [1, 7]: −1.4 ± 1.5 bpm
- ∆ Mean Arterial Pressure [1, 7]: 2.2 ± 1.1 mmHg
- ∆ QRS Interval [1, 7]: 0.4 ± 0.6
- ∆ respiratory rate [1, 7]: 1.9 ± 1.6%
- ∆ Heart Rate [1, 8]: −0.5 ± 2.9 bpm
- ∆ Mean Arterial Pressure [1, 8]: 2.3 ± 2.5 mmHg
- ∆ QRS Interval [1, 8]: 0.4 ± 0.7
- ∆ respiratory rate [1, 8]: 4.0 ± 1.0%
- ∆ Heart Rate [1, 9]: −0.4 ± 1.2 bpm
- ∆ Mean Arterial Pressure [1, 9]: 10.5 ± 1.5 mmHg
- ∆ QRS Interval [1, 9]: 3.7 ± 0.9
- ∆ respiratory rate [1, 9]: −10.1 ± 0.9%
- ∆ Heart Rate [1, 10]: 2.1 ± 1.4 bpm
- ∆ Mean Arterial Pressure [1, 10]: 4.6 ± 1.9 mmHg
- ∆ QRS Interval [1, 10]: 3.9 ± 0.8
- ∆ respiratory rate [1, 10]: −24.8 ± 3.3%
- IC50 (Human NaV1.5): > 30 µM
- Papp [2]: 1.027 10e-6cm/s
- inhibition of diaphragm contraction / respiratory effect in HMD assay [3]: does not exhibit respiratory effect
- inhibition at 30 µM ([3]; Rattus norvegicus, highest concentration tested of 30 μM): < 50%
- IC50 ([3]; Rattus norvegicus): > 30 µM
- inhibition in rat HMD assay [3]: little effect

Structure (SMILES): C[C@H](c1cccc2c1CNCC2)n1c(=O)oc2cc(S(=O)(=O)Nc3ncns3)ccc21 [SSCI-3]
- mortality ([1]; rat CV/R assay, IV, 10 mg/kg): No mortality
- time of mortality ([1]; rat CV/R assay, IV, 30 mg/kg): 20 to 21 min
- ∆ Heart Rate [1, 11]: 3.0 ± 0.7 bpm
- ∆ Mean Arterial Pressure [1, 11]: 12.9 ± 2.1 mmHg
- ∆ respiratory rate [1, 11]: −8.5 ± 1.8%
- ∆ Heart Rate [1, 12]: 5.0 ± 1.9 bpm
- ∆ Mean Arterial Pressure [1, 12]: 6.8 ± 8.7 mmHg
- ∆ QRS Interval [1, 12]: 0.5 ± 0.2
- ∆ respiratory rate [1, 12]: −3.2 ± 1.8%
- ∆ respiratory rate ([1]; rat, IV infusion, 30 mg/kg, 20–21 min): −100%
- ∆ Heart Rate [1, 9]: 5.6 ± 1.7 bpm
- ∆ Mean Arterial Pressure [1, 9]: 13.8 ± 0.7 mmHg
- ∆ QRS Interval [1, 9]: 0.3 + 0.4
- ∆ respiratory rate [1, 9]: −6.2 ± 5.4%
- IC50 (Human NaV1.5): > 30 µM
- Papp [2]: 1.716 10e-6cm/s
- IC50 ([3]; Rattus norvegicus): 2.7 µM

Structure (SMILES): N#Cc1cc(S(=O)(=O)Nc2cscn2)ccc1Oc1ccc(Cl)cc1-c1ccnn1C1CNC1 [SSCI-5]
- mortality [1, 4]: mortality
- ∆ Heart Rate [1, 9]: −1.7 ± 1.3 bpm
- ∆ Mean Arterial Pressure [1, 9]: 14.0 ± 2.1 mmHg
- ∆ QRS Interval [1, 9]: 1.5 ± 1.1
- ∆ respiratory rate [1, 9]: −13.0 ± 3.4%
- ∆ Heart Rate [1, 10]: −3.7 ± 2.8 bpm
- ∆ Mean Arterial Pressure [1, 10]: 13.3 ± 5.5 mmHg
- ∆ QRS Interval [1, 10]: 4.6 ± 3.2
- ∆ respiratory rate [1, 10]: −10.2 ± 2.6%
- ∆ respiratory rate ([1]; rat, IV infusion, 60 mg/kg, 21–23 min): −100%
- ∆ Heart Rate [1, 13]: 1.0 bpm
- ∆ Mean Arterial Pressure [1, 13]: 5.2 mmHg
- ∆ QRS Interval [1, 13]: 5.2
- ∆ respiratory rate [1, 13]: −15.6%
- time to respiratory and cardiac collapse ([1]; rat, infusion without ventilatory support): ≤ 30 min
- IC50 (Human NaV1.5): > 30 µM
- Papp [2]: 1.351 10e-6cm/s
- IC50 ([3]; Rattus norvegicus): 11 µM

Structure (SMILES): COc1ccc(CCC(c2cccc3c2CNCC3)n2c(=O)oc3cc(S(=O)(=O)Nc4ncns4)c(F)cc32)cc1 (centres unmarked) [SSCI-6]
- mortality [1, 4]: mortality
- ∆ respiratory rate ([1]; rat, IV infusion, 1 mg/kg, 20–23 min): −100%
- ∆ Heart Rate [1, 14]: −0.1 ± 0.4 bpm
- ∆ Mean Arterial Pressure [1, 14]: 8.2 ± 7.9 mmHg
- ∆ QRS Interval [1, 14]: 1.0 ± 0.8
- ∆ respiratory rate [1, 14]: −18.3 ± 9.3%
- ∆ Heart Rate [1, 15]: 1.7 bpm
- ∆ Mean Arterial Pressure [1, 15]: 7.5 mmHg
- ∆ QRS Interval [1, 15]: 1.7
- ∆ respiratory rate [1, 15]: −7.8%
- IC50 (Human NaV1.5): > 30 µM
- Ex vivo HMD inhibition ([3]; at 10 (μM), relative to 3 μM d-Tubocurarine = 100%): 130% at 10
- inhibition in rat HMD assay [3]: supramaximal inhibition

From article PMC9578445, “Association of respiratory failure with inhibition of NaV1.6 in the phrenic nerve” (Channels, 2022)
